Values quoted from earlier work as cited in US20020035131A1, “Regimen and kit for amelioration of premature ejaculation” (Pentech Pharmaceuticals, Inc., priority 1999, published 2002).

System: patients treated for premature ejaculation
Settings: cited from earlier work

CN[C@H]1CC[C@@H](c2ccc(Cl)c(Cl)c2)c2ccccc21 [sertraline]
patients who managed to ejaculate during sexual intercourse (25 mg sertraline/day, study group of 46): all patients | men unable to ejaculate after prolonged sexual intercourse (50 mg sertraline/day, 4/46): 9% | patients unable to ejaculate after prolonged sexual intercourse (100 mg sertraline/day, 10/46): 22%
